These are literature values, as cited in patent US20140249101A1, “METHODS FOR TREATING HEPATITIS C VIRUS INFECTION” (Gilead Pharmasset LLC, priority 2013, published 2014).

For the series, the system named is hepatitis C virus (HCV). To be noted: ribavirin alone.

“Also recorded” adds a separate entry of the source.

In the case of `NC(=O)c1ncn([C@@H]2O[C@H](CO)[C@@H](O)[C@H]2O)n1` [ribavirin, 1-β-d-ribofuranosyl-1H-1,2,4-triazole-3-carboxamide], the sustained virologic response entry was “did not produce any sustained virologic response; also recorded: has not been shown to produce SVR”. Also, the “effect on HCV RNA levels” value (during or after therapy) is on record as “did not reduce HCV RNA levels during or after therapy; also recorded: little or no effect on HCV RNA levels”. Also, the “effect on alanine aminotransferase (ALT) levels” value (during the course of treatment, some patients with CHC) is “can normalize alanine aminotransferase (ALT) levels transiently; also recorded: normalized alanine aminotransferase (ALT) levels transiently”.
